From patent US9497963B2, “Methods and compositions for control of gypsy moth, Lymantria dispar” (Simon Fraser University, priority 2008, dated 2016) come the findings set out here.

Assay [1] concerns L. dispar PBP 2. In words: Pheromone-binding protein (PBP) ligand binding assay, PBP2. Set-up: species or system Lymantria dispar. As to the method:
(§1) A. The protein and ligand are incubated in buffer overnight. B. For half of the incubation mixture, the free ligand (L) is separated from the protein-bound ligand (P.L) by size-exclusion chromatography on P2 Gel (BioRad, exclusion limit 2000 Da). The protein elutes from the small column bed, with its ligand bound (see Examples and […] et al. 2000; Staddon and Everton 1980), while the free ligand is retained on the column ([…] et al. 2000). C. […] The extract from the filtrate (B) contains the protein-bound ligand and the extract from the incubation mixture (A) contains all the ligand (bound and free) present in the aqueous phase. The extracts are analyzed by GC-MS, to obtain values for total ligand in solution (L+P.L) and for protein-bound ligand (P.L). These can then be used to calculate % bound (Table 3). These assays were performed as described in FIG. 3 and as follows: L. dispar PBP 1 or PBP 2 was incubated with the test compound or mini-library. The PBP and the ligand(s) (L) were left to equilibrate (eq 2) overnight. The non-bound ligand was then separated from the protein-bound material (PBP.L) by size-exclusion chromatography. By determining the total ligand in solution at equilibrium (eq. 3) and the protein-bound ligand, it is possible to estimate the percentage of ligand bound to the protein at equilibrium (eq. 4). […] This binding assay has been validated extensively in previous studies ([…] et al. 2000). The components of each mini-library separated cleanly by GC, so it was possible to monitor binding of individual components. PBP+L⇄PBP·L (eq. 2) [L]tot=[L]+[PBP·L] (eq. 3) % bound=100×[PBP·L]/[L]tot (eq. 4) Results: The members of each mini-library separated cleanly by GC, therefore it was possible to monitor binding of individual members to PBP1 or PBP2, the two known PBPs in the gypsy moth, by extraction from the aqueous incubation mixture, followed by GC analysis of the extract (FIG. 3).

Assay [2] deals with L. dispar PBP 1. In words: Pheromone-binding protein (PBP) ligand binding assay, PBP1. Set-up: species or system Lymantria dispar. As to the method:
as §1

Assay [3] deals with male gypsy moth antenna response to mixed pheromone/modulator plume. In words: EAG peak broadening (PB) (Example 11). Set-up: species or system Lymantria dispar. The note with it: for activity (% peak broadening): mixed plume, 100 μg compound and 100 ng pheromone (puff v vs puff ii). The method, then:
A mixed pheromone/modulator plume could elicit a prolonged response (FIG. 1A, puff v; FIG. 2), and this was termed peak broadening (PB). PB was calculated from the EAG traces as follows: PB=100×(Δtv−Δtii)/Δtii
Where Δt was the width of the EAG peak (in s) from the start of the depolarization to the return to background potential.

Assay [4] concerns response of L. dispar antennae to (+)-disparlure. In words: Competitive electroantennogram (EAG) screen, inhibition of response to (+)-disparlure (Example 4). Set-up: species or system Lymantria dispar. The note with it: for inhibition at 0.001 mg / inhibition at 0.01 mg / inhibition at 0.1 mg: Lymantria dispar, means ± S.E.; for inhibition at 0.001 mg: dose 1 μg on cartridge; for inhibition at 0.01 mg: dose 10 μg on cartridge; for inhibition at 0.1 mg: dose 100 μg on cartridge. The method, then: In this assay, libraries and individual compounds are tested for their ability to inhibit the antennal response to the sex attractant pheromone of the gypsy moth, (7R,8S) 2-methyl-7,8-epoxyoctadecane, also known as (+)-disparlure. The controls consisted of a puff of clean air (negative) or of air passed over a cartridge impregnated with (+)-disparlure (100 ng) (positive). The treatments consisted of 100 ng of (+)-disparlure in combination with a compound or library at 1, 10 or 100 μg, on a cartridge over which the air puff was passed. The small arrows above the trace denote the times where the air was puffed over the antenna.
For some compounds, such as the para Compounds 2c{n}, 2c{n,n} and libraries 3c{n,1-5}, EAG competitive assays were performed to investigate whether the diethers inhibit the response of L. dispar antennae to the main component of the sex attractant pheromone cis-(7R,8S)-epoxy-2-methyloctadecane [(+)-disparlure] (FIG. 4). For EAGs a male moth antenna was mounted and placed in front of a stimulus-delivery glass tubing (160×5 mm ID) with a side orifice (2 mm diam) near (2 cm) the distal opening. The tubing was connected to one port of an apparatus (Stimulus Controller CS-05, Syntech Research and Equipment, NL-1200BM Hilversum, The Netherlands) that generated a constant stream of clean air (300 ml/min). The second port of the apparatus was connected to a Pasteur pipette inserted through the side orifice of the stimulus-delivery tubing. The test stimulus was applied to a disc of Whatman #1 filter paper inside the Pasteur pipette and was discharged through a 0.3-sec pulse of air (600 ml/min) Receptor potentials of the antennae in response to test stimuli were recorded with a Syntech IDAC probe, amplifier and interfaced board, and were analyzed with EAG Syntech Software Version 2.4 (1996) Inhibition (%) was calculated as: % inhibition=(Dd−Ds)/Dd×100 (eq. 1)
Where Dd is the depolarization observed with pure disparlure (corrected for clean air background) and Ds is the depolarization with disparlure+sample. See FIG. 4 for a representative EAG inhibition assay trace.

For assay [5], the system named is gypsy moths. In words: Field test of trap catches, Northern Japan 2009 (Example 12). Conditions: (+)-dis 40 μg/lure & compound 40 mg/lure, vs (+)-dis alone. The format is in vivo, Lymantria dispar. The method, then:
Ten traps were used per treatment. The solvent used to deliver the compounds onto the lures was doubly distilled hexane. The hexane was evaporated prior to packing and shipping the lures. The field test was conducted in 10 replicates in Northern Japan. The test was conducted Aug. 16-18, 2009, in an area where gypsy moths are known to live. […] Traps were arranged randomized, placed on platforms. The experiment was conducted blind. The lures contained 40 μg disparlure/lure, a low dose for a field trial (typically 100 μg-1 mg are used). For each treatment, 10 traps were deployed.

Setting [6] is: member tested within library 3c{1, 1-5}.
[7] abbreviates: tested as single compound, means ± S.E., 4 replicates.
[8] abbreviates: member tested within library 3c{3, 1-5}, Nd = not detected in GC-MS.
Where [9] appears, read: member tested within library 3c{3, 1-5}.
The mark [10] stands for this setting: member tested within library 3c{2, 1-5}.
Where [11] appears, read: member tested within library 3c{5, 1-5}.

“Also recorded” adds a separate entry of the source.

The inhibition is the drop in the measured response relative to a control, in per cent. As for `COc1ccc(OC)cc1` [3c{1,1}, 1,4-Dimethoxy benzene], the figures for the “PBP2 (% bound)” value in assay [1] (setting [6]) and in assay [1] (setting [7]) were 19 ± 0.9% and 13 ± 2.1%, respectively. The “PBP1 (% bound)” value in assay [2] (setting [6]) is listed as 24 ± 0.3%; in assay [2] (setting [7]) it was 40 ± 2.5%. Moreover, in assay [3], the “activity (% peak broadening)” value was determined as 77 ± 12%. Also, the inhibition at 0.001 mg in assay [4] came out at 4 ± 6%. In addition, the inhibition at 0.01 mg in assay [4] is -8 ± 9%. Besides, the inhibition at 0.1 mg in assay [4] was 38 ± 7%.
As for `CCCOc1ccc(OC)cc1` [3c{1,3}, 1-methoxy-4-propoxy-benzene], the “PBP2 (% bound)” value stood at 5 ± 2.1% in assay [1] (setting [6]) and 7 ± 0.2% in assay [1] (setting [8]). Also, the “trap catches in the field” value in assay [5] is listed as “enhanced the trap catches significantly”. For the same compound, the results for the “PBP1 (% bound)” value in assay [2] (setting [6]) and in assay [2] (setting [9]) were 7 ± 0.5% and 13 ± 0.3%, respectively. In assay [3] (1:1000 ratios), the “peak broadening / prolongation of the EAG signal (in words)” value is reported as “significant prolongation of the EAG signal; also recorded: strongest peak broadening compound”. Besides, the “activity (% peak broadening)” value in assay [3] worked out at 175 ± 23%.
Consider `CCOc1ccc(OCC)cc1` [3c{2,2}, 1,4-Diethoxy benzene], for which the “PBP2 (% bound)” value in assay [1] (setting [10]) stood at 33 ± 0.6%; in assay [1] (setting [7]), 19 ± 0.2%. Further, the results for the “PBP1 (% bound)” value in assay [2] (setting [10]) and in assay [2] (setting [7]) were 14 ± 0.5% and 28 ± 0.1%, respectively. For the same compound, the “activity (% peak broadening)” value in assay [3] amounted to 71 ± 30%. Further, the inhibition at 0.001 mg in assay [4] worked out at 4 ± 13%. Besides, the inhibition at 0.01 mg in assay [4] is 45 ± 6%. In addition, in assay [4], the inhibition at 0.1 mg is -3 ± 13%.
With `CCCOc1ccc(OCC)cc1` [3c{2,3}, 1-ethoxy-4-propoxy benzene], the results for the “PBP2 (% bound)” value in assay [1] (setting [10]) and in assay [1] (setting [8]) were 22 ± 0.3% and 6 ± 0.2%, respectively. Further, in assay [5], the “trap catches in the field” value is recorded as “enhanced the trap catches significantly”. Also, the entries for the “PBP1 (% bound)” value in assay [2] (setting [10]) and in assay [2] (setting [9]) were 10 ± 0.3% and 13 ± 0.3%, respectively. Besides, in assay [3], the “activity (% peak broadening)” value amounted to 94 ± 24%.
Take `CCCOc1ccc(OCCC)cc1` [3c{3,3}, 1,4-Dipropoxy benzene]: the “PBP2 (% bound)” value in assay [1] (setting [8]) came to 3 ± 0.1%. Besides, in assay [1] (setting [7]), the “PBP2 (% bound)” value turned out to be 5 ± 0.2%. In assay [2] (setting [9]), the “PBP1 (% bound)” value was 4 ± 0.3%. Further, the “PBP1 (% bound)” value in assay [2] (setting [7]) worked out at 15 ± 0.7%. Besides, in assay [4], the “inhibitory activity on antennal pheromone responses (in words)” value was “moderate inhibitory activity”, the inhibition at 0.001 mg turned out to be 5 ± 16%, the inhibition at 0.01 mg amounted to 55 ± 7% and the inhibition at 0.1 mg was -3 ± 15%.
As to `CC(C)CCOc1ccc(OCCC(C)C)cc1` [3c{5,5}, 1,4-Di-(3-methyl-butyloxy) benzene], in assay [1] (setting [11]), the “PBP2 (% bound)” value is 1 ± 0.1%. Further, in assay [1] (setting [7]), the “PBP2 (% bound)” value came to 8 ± 0.2%. Also, the “PBP1 (% bound)” value in assay [2] (setting [11]) came to 5 ± 0.1%. Further, in assay [2] (setting [7]), the “PBP1 (% bound)” value came out at 9 ± 0.7%. Further, in assay [4], the “inhibitory activity on antennal pheromone responses (in words)” value was “moderate inhibitory activity”, the inhibition at 0.001 mg was 63 ± 12%, the inhibition at 0.01 mg stood at 38 ± 22% and the inhibition at 0.1 mg was found to be 64 ± 11%.
